Patent publication US12679825B2, “Crystalline and amorphous forms of a δ-opioid modulator” (Trevena, Inc., priority 2020, dated 2026)
“Also recorded” adds a separate entry of the source.

Columns and labels:
[1] = Dynamic Vapour Sorption (DVS); type: physicochemical
Description: The following results and observations were obtained from this experiment (see Table 4 for further details): • After anti-solvent addition to the solutions at 20° C., the experiment carried out using tBME as the initial solvent system had solid adhered to the vial walls. The experiments carried out using MEK and THF as the initial solvent systems were cloudy, with some oil/gum formation noted. • After temperature cycling overnight, all experiments formed slurries. […] (peak at 98° C.) during the first heat. A glass transition with a mid-point half-height of ca. 32° C. was observed during the first cool. […] The residual tBME could not be quantified, due to overlapping signals with the API. Residual heptane was observed, equal to 0.91% w/w, or 0.05 equivalents. • ^1H NMR spectroscopy of the crystalline Form I isolated from MEK:heptane 20:80 v/v % was consistent with the structure of the compound of Formula I free base. The residual MEK could not be quantified, due to overlapping signals with the API. Residual heptane was observed, equal to 0.51% w/w, or 0.02 equivalents. • ^1H NMR spectroscopy of the crystalline Form I isolated from THF:heptane 22:78 v/v % was consistent with the structure of the compound of Formula I free base. The residual THF could not be quantified, due to overlapping signals with the API.
Crystalline forms of the compound of Formula I, including the crystalline Form I, were analyzed using Dynamic Vapour Sorption (DVS). Approximately 10-15 mg of sample was placed into a mesh vapour sorption balance pan and loaded into a DVS Intrinsic dynamic vapour sorption balance by Surface Measurement Systems. The sample was subjected to a ramping profile from 40-90% relative humidity (RH) at 10% increments, maintaining the sample at each step until a stable weight had been achieved (dm/dt 0.004%, minimum step length 30 minutes, maximum step length 120 minutes) at 25° C. After completion of the sorption cycle, the sample was dried using the same procedure to 0% RH and then a second sorption cycle back to 40% RH was carried out. Two cycles were performed. The weight change during the sorption/desorption cycles were plotted, allowing the hygroscopic nature of the sample to be determined. XRPD analysis was then carried out on the residual solid.

[2] = Potentiometric (pH-metric) pKa; type: physicochemical; settings: pH 2.0-12.0, methanol-water co-solvent, Yasuda-Shedlovsky extrapolation
Description: Crystalline forms of the compound of Formula I, including the crystalline Form I, were analyzed using pKa and LogP. An automated titrator system with an incorporated UV-Vis spectrometer (SiriusT3™, Pion Inc.) was used to acquire the spectrometric and potentiometric data. The optical system consisted of a photodiode array detector with a deuterium lamp and a fiber optic dip probe.
The titrator module consisted of a temperature controller (by Peltier device with in-situ thermocouple), pH electrode, an overhead stirrer, and motorized dispensers for the automatic delivery of assay titrants and reagents via capillaries. The instrumentation was operated using SiriusT3Control software (V2.0). Data processing and generation of the reported pKa and logP values was carried out using SiriusT3Refine software (V2.0). The titrants used were 0.5 M hydrochloric acid and 0.5 M potassium hydroxide, standardized using potassium hydrogen phthalate. ACS or HPLC grade methanol cosolvent was used for pKa determination. […]
An additional potentiometric assay was carried out to confirm the pKa. […] The aqueous pKa was extrapolated from the apparent pKa measured in the presence of co-solvents, using the Yasuda-Shedlovsky extrapolation equation. […]

- DVS mass uptake ([1]; 25° C./80% RH, material isolated from tBME:heptane 50:50 v/v %): ca. 0.5 % w/w
- Water Uptake (DVS, 25° C.) At 25° C./80%, RH ([1]; 25° C./80% RH, tBME:Heptane 50:50): 0.5%
- Post-DVS XRPD ([1]; form after DVS analysis): retained; also recorded: Form I
- Hygroscopicity (DVS) ([1]; material isolated from tBME:heptane 50:50 v/v %): slightly hygroscopic
- Potentiometric (pH-metric) pKa [2]: confirmed the spectrometric pKa
Compound: COCCOc1cccc([C@@H]2CCN(CCn3cccc3)[C@H](C)[C@H]2COc2ccc3c(c2)C(=O)NC3)c1 [crystalline Form I, (−)-6-{[(trans, trans)-4-[3-(2-methoxyethoxy)phenyl]-2-methyl-1-[2-(1H-pyrrol-1-yl)ethyl]piperidin-3-yl]methoxy}-2,3-dihydro-1H-isoindol-1-one]
